In patent US20250051338A1, “TYK2 DEGRADERS AND USES THEREOF” (Kymera Therapeutics, Inc., priority 2021, published 2025):

Assays:
Format in all cases: cell-based
[1] = target: T1, TYK2 (Homo sapiens, UniProt P29597); assay: TYK2 degradation MSD assay in human PBMC cells; set-up: endogenous in cells; host or cells: human PBMC; settings: 4 to 24 hours incubation, read-out: TYK2 MSD DC50 rating in human PBMC
How it was run: (§1)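 MSD electrochemiluminescence readout of residual TYK2 in RIPA lysates after 4–24 h compound exposure at 37° C. Dosing: 9 concentrations, 1:3 steps, top 1 to 10 μM. DC50 fitted by four-parameter inhibitor vs. response regression.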

[2] = target: T1, TYK2; assay: TYK2 degradation MSD assay in EBV-B cells; set-up: endogenous in cells; host or cells: EBV-B cells; settings: 4 to 24 hours incubation, read-out: TYK2 MSD DC50 rating in EBV-B
How it was run: as §1

[3] = target: T1, TYK2; assay: TYK2 degradation MSD assay in OCI-LY10 cells; set-up: endogenous in cells; host or cells: EBV-B cells; settings: 4 to 24 hours incubation, read-out: TYK2 MSD DC50 rating in OCI-LY10
How it was run: as §1

T1 sequence (P29597 whole entry): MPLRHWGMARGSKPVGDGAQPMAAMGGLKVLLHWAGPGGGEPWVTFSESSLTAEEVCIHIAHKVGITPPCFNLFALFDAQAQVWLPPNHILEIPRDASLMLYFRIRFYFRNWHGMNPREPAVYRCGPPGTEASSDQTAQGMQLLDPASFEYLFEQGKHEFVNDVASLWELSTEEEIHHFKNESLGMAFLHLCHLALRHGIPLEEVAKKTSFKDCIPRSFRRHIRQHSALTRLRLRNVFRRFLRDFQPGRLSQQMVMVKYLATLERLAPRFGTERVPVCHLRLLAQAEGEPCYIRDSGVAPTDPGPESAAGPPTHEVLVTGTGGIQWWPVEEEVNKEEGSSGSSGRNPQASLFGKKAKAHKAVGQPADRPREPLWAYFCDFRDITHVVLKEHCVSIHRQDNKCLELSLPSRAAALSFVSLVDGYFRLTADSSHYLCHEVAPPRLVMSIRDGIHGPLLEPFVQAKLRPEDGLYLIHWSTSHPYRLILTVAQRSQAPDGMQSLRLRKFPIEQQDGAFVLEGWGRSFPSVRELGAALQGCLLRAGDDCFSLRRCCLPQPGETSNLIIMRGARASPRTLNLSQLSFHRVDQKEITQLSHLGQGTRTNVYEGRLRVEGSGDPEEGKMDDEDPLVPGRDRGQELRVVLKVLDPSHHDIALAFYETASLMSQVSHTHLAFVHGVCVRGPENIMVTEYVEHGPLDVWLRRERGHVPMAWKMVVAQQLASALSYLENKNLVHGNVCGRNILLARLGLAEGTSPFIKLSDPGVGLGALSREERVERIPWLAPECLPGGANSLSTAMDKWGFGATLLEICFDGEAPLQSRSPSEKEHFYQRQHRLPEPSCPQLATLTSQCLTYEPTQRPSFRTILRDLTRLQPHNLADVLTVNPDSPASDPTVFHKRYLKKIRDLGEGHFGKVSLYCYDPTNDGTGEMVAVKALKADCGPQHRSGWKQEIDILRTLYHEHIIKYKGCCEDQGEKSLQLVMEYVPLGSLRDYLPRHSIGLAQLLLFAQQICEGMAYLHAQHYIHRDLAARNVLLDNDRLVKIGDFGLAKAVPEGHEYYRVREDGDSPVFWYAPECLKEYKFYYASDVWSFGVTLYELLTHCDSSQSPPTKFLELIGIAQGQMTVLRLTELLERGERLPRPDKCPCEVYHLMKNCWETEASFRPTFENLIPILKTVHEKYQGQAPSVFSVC

DC50 [1] [µM]	DC50 [2] [µM]	DC50 [3] [µM]	SMILES
> 0.1	0.001 to 0.01	0.001 to 0.01	CNc1cc(Nc2cccc(-c3ccc(CN4CCN(c5ccc(-c6cccc7c6n(C)c(=O)n7C6CCC(=O)NC6=O)cc5)CC4)cn3)c2)nn2c(C(=O)N[C@@H]3C[C@@H]3F)cnc12 (stereo partly drawn) [Example K513]
> 0.1	< 0.001	< 0.001	CNc1cc(Nc2cccc(-c3ccc(CN4CCN([C@H]5CC[C@H](c6ccc7c(c6)n(C)c(=O)n7C6CCC(=O)NC6=O)CC5)CC4)cn3)c2OC)nn2c(C(=O)N[C@@H]3C[C@@H]3F)cnc12 (mixture of isomers) [Example K553]
> 0.1	> 0.1	> 0.1	CNc1cc(Oc2ccn(C3CCN(CC4CCN(c5ccc(-c6ccc7c(c6)n(C)c(=O)n7C6CCC(=O)NC6=O)cc5)CC4)CC3)n2)nn2c(C(=O)N[C@@H]3C[C@@H]3F)cnc12 (stereo partly drawn) [Example K549]
> 0.1	< 0.001	> 0.1	CNc1cc(Nc2cccn(-c3ccc(C(=O)N4CCN(CCCOCCc5ccc(-c6ccc7c(c6)n(C)c(=O)n7C6CCC(=O)NC6=O)cc5)CC4)cn3)c2=O)nn2c(C(=O)N[C@@H]3C[C@@H]3F)cnc12 (stereo partly drawn) [Example K379]
> 0.1	> 0.1	> 0.1	CNc1cc(C2CCCN(C(=O)CCCCCCCc3ccc4c(c3)n(C)c(=O)n4C3CCC(=O)NC3=O)C2)nn2c(C(=O)N[C@@H]3C[C@@H]3F)cnc12 (stereo partly drawn) [Example K304]
> 0.1	> 0.1	> 0.1	CNc1cc(Nc2cccc(CN3CCC4(CCCN(CCC5C=c6c(n(C7CCC(=O)NC7=O)c(=O)n6C)=CC5)C4)C3)c2)nn2c(C(=O)NC3CC3)cnc12 (stereo not drawn) [Example K582]
> 0.1	< 0.001	> 0.1	CNC(=O)c1cnc(Nc2ccc(CN3CCC(OC4CC(c5ccc6c(c5)n(C)c(=O)n6C5CCC(=O)NC5=O)C4)CC3)cn2)cc1Nc1cccc(-c2ncc(F)cn2)c1OC (stereo not drawn) [Example K159]
> 0.1	< 0.001	> 0.1	CNc1cc(Nc2cccn(-c3ccc(C(=O)N4CCN(c5ccc(-c6ccc7c(c6)n(C)c(=O)n7C6CCC(=O)NC6=O)cn5)C(=O)C4)cn3)c2=O)nn2c(C(=O)N[C@@H]3C[C@@H]3F)cnc12 (stereo partly drawn) [Example K378]
> 0.1	> 0.1	0.001 to 0.01	CNc1cc(-c2ccc(-c3ccc(CN4CCN(c5ccc(-c6ccc7c(c6)n(C)c(=O)n7C6CCC(=O)NC6=O)cc5)CC4)cn3)cc2)nn2c(C(=O)N[C@@H]3C[C@@H]3F)cnc12 (stereo partly drawn) [Example K529]
> 0.1	0.001 to 0.01	> 0.1	CNc1cc(Nc2cccn(C3CCN(C(=O)N(C)C4CCN(Cc5cccc6c5n(C)c(=O)n6C5CCC(=O)NC5=O)CC4)CC3)c2=O)nn2c(C(=O)N[C@@H]3C[C@@H]3F)cnc12 (stereo partly drawn) [Example K396]
> 0.1	> 0.1	> 0.1	CNC(=O)c1cnc(NC(=O)CCCCCCCc2ccc3c(c2)n(C)c(=O)n3C2CCC(=O)NC2=O)cc1Nc1cccc(-c2ncc(F)cn2)c1OC (stereo not drawn) [Example K104]
> 0.1	> 0.1	0.001 to 0.01	CNc1cc(Nc2cccn(-c3ccc(C(=O)N(C)CCCOC4CCN(c5ccc6c(c5)n(C)c(=O)n6C5CCC(=O)NC5=O)CC4)cn3)c2=O)nn2c(C(=O)N[C@@H]3C[C@@H]3F)cnc12 (stereo partly drawn) [Example K438]
> 0.1	> 0.1	> 0.1	Cn1c(=O)n(C2CCC(=O)NC2=O)c2ccc(CCCCCCCCCCCCNc3cc(Nc4cccn(-c5ccccn5)c4=O)nn4c(C(=O)N[C@@H]5C[C@@H]5F)cnc34)cc21 (stereo partly drawn) [Example K211]
> 0.1	> 0.1	> 0.1	Cn1c(=O)n(C2CCC(=O)NC2=O)c2ccc(N3CCN(C4CN(C5CCN(Cc6ccc(-c7cccc(Nc8ccc9ncc(C(=O)NC%10CC%10)n9n8)c7)nc6)CC5)C4)CC3)cc21 (stereo not drawn) [Example K524]
> 0.1	> 0.1	0.01 to 0.1	CNc1cc(Nc2cccc(CN3CCN(CCc4ccc5c(c4)n(C)c(=O)n5C4CCC(=O)NC4=O)CC3)c2)nn2c(C(=O)NC3CC3)cnc12 (stereo not drawn) [Example K612]
0.01 to 0.1	> 0.1	> 0.1	CNc1cc(Nc2cccn(C3CCN(C(=O)COCCOCCOCCOCCc4ccc5c(c4)n(C)c(=O)n5C4CCC(=O)NC4=O)CC3)c2=O)nn2c(C(=O)N[C@@H]3C[C@@H]3F)cnc12 (stereo partly drawn) [Example K276]
< 0.001	> 0.1	< 0.001	CNC(=O)c1cnc(Nc2ccc(CN3CCC(N(C)c4cccc5c4n(C)c(=O)n5C4CCC(=O)NC4=O)CC3)cn2)cc1Nc1cccc(-c2ncc(F)cn2)c1OC (stereo not drawn) [Example K700]
> 0.1	> 0.1	< 0.001	CNc1cc(Nc2cccn(-c3ccc(C(=O)N4CCC(CN5CCC(c6ccc7c(c6)n(C)c(=O)n7C6CCC(=O)NC6=O)CC5)CC4)cn3)c2=O)nn2c(C(=O)N[C@@H]3C[C@@H]3F)cnc12 (stereo partly drawn) [Example K408]

DC50 [1] [µM]	DC50 [2] [µM]	DC50 [3] [µM]	SMILES
0.001 to 0.01	0.01 to 0.1	> 0.1	CCNC(=O)c1cnc(Nc2ccc(C(=O)NCCCCc3cccc4c3n(C)c(=O)n4C3CCC(=O)NC3=O)cn2)cc1Nc1cccc(-c2ncc(F)cn2)c1OC (stereo not drawn) [Example K182]
> 0.1	> 0.1	> 0.1	CNc1cc(Nc2cccc(CN3CCC(c4cccc5c4n(C)c(=O)n5C4CCC(=O)NC4=O)CC3)c2)nn2c(C(=O)NC3CC3)cnc12 (stereo not drawn) [Example K578]
> 0.1	> 0.1	> 0.1	[2H]C([2H])([2H])NC(=O)c1nnc(Nc2ccc(CN3CCN(c4ccc5c(c4)n(C)c(=O)n5C4CCC(=O)NC4=O)CC3)cn2)cc1Nc1cccc(F)c1OC (stereo not drawn) [Example K711]
> 0.1	> 0.1	< 0.001	CNc1cc(Nc2cccn(-c3ccc(CN4CC5(C4)CN(c4ccc(-c6ccc7c(c6)n(C)c(=O)n7C6CCC(=O)NC6=O)cc4)C5)cn3)c2=O)nn2c(C(=O)N[C@@H]3C[C@@H]3F)cnc12 (stereo partly drawn) [Example K519]
> 0.1	0.001 to 0.01	0.001 to 0.01	Cn1c(=O)n(C2CCC(=O)NC2=O)c2ccc(-c3ccc(N4CCN(Cc5ccc(-c6cccc(Nc7cc(NC8CC8)n8ncc(C(=O)N[C@@H]9C[C@@H]9F)c8n7)c6)nc5)CC4)cc3)cc21 (stereo partly drawn) [Example K509]
> 0.1	0.001 to 0.01	> 0.1	CNc1cc(Nc2cccn(-c3ccc(C(=O)N4CCC(CN5CCC56CN(c5ncc(C#Cc7ccc8c(c7)n(C)c(=O)n8C7CCC(=O)NC7=O)cn5)C6)CC4)cn3)c2=O)nn2c(C(=O)N[C@@H]3C[C@@H]3F)cnc12 (stereo partly drawn) [Example K375]
> 0.1	0.001 to 0.01	> 0.1	CNc1cc(Nc2cccn(C3CCN(C(=O)NCCCCCCCCCCc4ccc5c(c4)n(C)c(=O)n5C4CCC(=O)NC4=O)CC3)c2=O)nn2c(C(=O)N[C@@H]3C[C@@H]3F)cnc12 (stereo partly drawn) [Example K399]
> 0.1	> 0.1	> 0.1	Cn1c(=O)n(C2CCC(=O)NC2=O)c2cccc(C#CC3CCN(Cc4ccc(-c5cccc(Nc6ccc7ncc(C(=O)NC8CC8)n7n6)c5)nc4)CC3)c21 (stereo not drawn) [Example K412]
> 0.1	0.01 to 0.1	> 0.1	CNc1cc(Nc2cccn(-c3ccc(C(=O)N4CCC45CN(c4ncc(C#Cc6ccc7c(c6)n(C)c(=O)n7C6CCC(=O)NC6=O)cn4)C5)cn3)c2=O)nn2c(C(=O)N[C@@H]3C[C@@H]3F)cnc12 (stereo partly drawn) [Example K376]
> 0.1	0.001 to 0.01	> 0.1	CNC(=O)c1cnc(Nc2ccc(N3CCN(c4cccc5c4n(C)c(=O)n5C4CCC(=O)NC4=O)CC3)cn2)cc1Nc1cccc(-c2ncc(F)cn2)c1OC (stereo not drawn) [Example K702]
> 0.1	> 0.1	> 0.1	CNc1cc(Nc2cccn(-c3ccc(C(=O)NCCOCCOCCOCCOCCNc4cncc(N5CCCC(C(=O)Nc6ccc(=O)n(CC(=O)OC)c6)C5)c4)cn3)c2=O)nn2c(C(=O)N[C@@H]3C[C@@H]3F)cnc12 (stereo partly drawn) [Example K618]
> 0.1	< 0.001	> 0.1	[2H]C([2H])([2H])NC(=O)c1nnc(Nc2ccc(CN(C)CC3CCN(c4ccc5c(c4)n(C)c(=O)n5C4CCC(=O)NC4=O)CC3)cn2)cc1Nc1cccc(F)c1OC (stereo not drawn) [Example K712]
> 0.1	> 0.1	< 0.001	CNc1cc(N2CCc3c(N4CCN(C5CCN(c6ccc7c(c6)n(C)c(=O)n7C6CCC(=O)NC6=O)CC5)CC4)cccc32)nn2c(C(=O)N[C@@H]3C[C@@H]3F)cnc12 (stereo partly drawn) [Example K645]
> 0.1	> 0.1	0.001 to 0.01	CNc1cc(Nc2cccc(-c3ccc(CN4CC5(CCN(c6cccc7c6n(C)c(=O)n7C6CCC(=O)NC6=O)CC5)C4)cn3)c2)nn2c(C(=O)N[C@@H]3C[C@@H]3F)cnc12 (stereo partly drawn) [Example K464]
> 0.1	> 0.1	0.001 to 0.01	CNc1cc(Nc2ccc(F)c(-c3ccc(Cc4ccc(-c5ccc6c(c5)n(C)c(=O)n6C5CCC(=O)NC5=O)cc4)cn3)c2OC)nn2c(C(=O)N[C@@H]3C[C@@H]3F)cnc12 (stereo partly drawn) [Example K648]
> 0.1	> 0.1	> 0.1	CNc1cc(Nc2cccc(-c3ccc(CN4CCN(c5ccc(-c6ccc7c(c6)n(C)c(=O)n7C6CCC(=O)NC6=O)cc5)CC4)cn3)c2)nn2c(C(=O)N[C@@H]3C[C@@H]3F)cnc12 (stereo partly drawn) [Example K499]
> 0.1	> 0.1	0.001 to 0.01	CNc1cc(Nc2cccc(-c3ccc(CN4CCN(c5ccc(-c6ccc7c(c6)n(C)c(=O)n7C6CCC(=O)NC6=O)cc5)CC4)cn3)c2OC)nn2c(-c3cn(C(C)C)nn3)cnc12 (stereo not drawn) [Example K630]
